Test results taken from ChEMBL document CHEMBL1153286, “Synthesis and biological evaluation of sulfonylurea and thiourea derivatives substituted with benzenesulfonamide groups as potential hypoglycemic agents” (Bioorg Med Chem Lett, 2009).
Calls of active or inactive are those of the source. The calls are words filed in the database; no cut-off is given here.

Legend:
[1] = Volume of distribution in rat at 2.5 mg/kg, iv or 5 mg/kg, po; format: ADME, organism-based; settings: in vivo
Mus musculus [2] = experiment: Protection against collagen-epinephrine-induced mortality in Chinese Kunming cerebral thrombosis mouse model assessed as survival rate at 40 mg/kg, po administered once daily for 7 days measured on day 7 within 15 mins of collagen-epinephrine challenge; format: functional
Mus musculus [3] = experiment: Reduction of plasma glucose level in fasted C57BL/6J mouse at 7 mg/kg, po administered daily for 3 days measured on day 5 by glucose oxidase trinder method; format: functional, organism-based; parameters: dose 7 mg/kg
Mus musculus [4] = experiment: Protection against collagen-epinephrine-induced mortality in Chinese Kunming cerebral thrombosis mouse model assessed as survival rate at 10 mg/kg, po administered once daily for 7 days measured on day 7 within 15 mins of collagen-epinephrine challenge; format: functional
Adipocyte [5] = experiment: Increase in glucose absorption in Sprague-Dawley rat adipocytes at 100 uM by liquid scintillation counting relative to basal level; format: functional
Mus musculus [6] = experiment: Protection against collagen-epinephrine-induced mortality in Chinese Kunming cerebral thrombosis mouse model assessed as survival rate at 20 mg/kg, po administered once daily for 7 days measured on day 7 within 15 mins of collagen-epinephrine challenge; format: functional
[7] = Effect on insulin release in rat pancreatic cells at 10 umol/L after 6 hrs by radioimmunoassay; format: functional
[8] = Antiplatelet activity in human platelets assessed as inhibition of ADP-induced platelet aggregation; format: functional, cell-based
[9] = Effect on insulin release in rat pancreatic cells at 100 umol/L after 6 hrs by radioimmunoassay; format: functional
Mus musculus [10] = experiment: Reduction of plasma glucose level in fasted C57BL/6J mouse at 2.5 mg/kg, po administered daily for 3 days measured on day 5 by glucose oxidase trinder method; format: functional, organism-based; parameters: dose 2.5 mg/kg
[11] = Oral bioavailability in rat at 5 mg/kg, po; format: ADME, organism-based; settings: in vivo
Rattus norvegicus = experiment: AUC in rat at 5 mg/kg, po; format: ADME, organism-based, Plasma; parameters: dose 5 mg/kg, route oral; settings: in vivo
Adipocyte [12] = experiment: Effect on 2-deoxy-D-[1-3H]glucose transport in Sprague-Dawley rat adipocytes at 10 uM in absence of insulin by liquid scintillation counting; format: functional
[13] = Clearance in rat at 2.5 mg/kg, iv or 5 mg/kg, po; format: ADME, organism-based; settings: in vivo
[14] = Half life in rat at 5 mg/kg, po; format: ADME, organism-based; parameters: dose 5 mg/kg, route oral; settings: in vivo
Adipocyte [15] = experiment: Effect on 2-deoxy-D-[1-3H]glucose transport in Sprague-Dawley rat adipocytes at 1 uM in presence of insulin by liquid scintillation counting; format: functional
Adipocyte [16] = experiment: Effect on 2-deoxy-D-[1-3H]glucose transport in Sprague-Dawley rat adipocytes at 100 uM in presence of insulin by liquid scintillation counting; format: functional
[17] = Increase in insulin release in rat pancreatic cells at 100 umol/L after 6 hrs by radioimmunoassay relative to basal level; format: functional
[18] = Tmax in rat at 2.5 mg/kg, iv or 5 mg/kg, po; format: ADME, organism-based; settings: in vivo
Adipocyte [19] = experiment: Effect on 2-deoxy-D-[1-3H]glucose transport in Sprague-Dawley rat adipocytes at 10 uM in presence of insulin by liquid scintillation counting; format: functional
[20] = Cmax in rat at 2.5 mg/kg, iv or 5 mg/kg, po; format: ADME, organism-based; settings: in vivo
Adipocyte [21] = experiment: Effect on 2-deoxy-D-[1-3H]glucose transport in Sprague-Dawley rat adipocytes at 100 uM in absence of insulin by liquid scintillation counting; format: functional
[22] = Half life in rat at 2.5 mg/kg, iv; format: ADME, organism-based; parameters: dose 2.5 mg/kg, route intravenous; settings: in vivo
[23] = Effect on insulin release in rat pancreatic cells at 1 umol/L after 6 hrs by radioimmunoassay; format: functional
[24] = Antiplatelet activity in human platelets assessed as inhibition of arachidonic acid-induced platelet aggregation; format: functional, cell-based
Mus musculus [25] = experiment: Reduction of plasma glucose level in fasted C57BL/6J mouse at 20 mg/kg, po administered daily for 3 days measured on day 5 after 6 hrs by glucose oxidase trinder method; format: functional; parameters: scale not given: the % may be the effect or the level left
Adipocyte [26] = experiment: Effect on 2-deoxy-D-[1-3H]glucose transport in Sprague-Dawley rat adipocytes at 1 uM in absence of insulin by liquid scintillation counting; format: functional

For CC1CCC(NC(=O)NS(=O)(=O)c2ccc(CCNS(=O)(=O)c3ccc(Br)cc3)cc2)CC1 (configuration not stated), the Vd [1] was 0.78 L/kg, the survival at 40 mg/kg (Mus musculus [2]) was 72.7% and the Activity (Mus musculus [3]) was “Active”. The survival at 10 mg/kg (Mus musculus [4]) was 27.3%, the “fold change (FC)” value (Adipocyte [5]) was 1.73 and the survival at 20 mg/kg (Mus musculus [6]) was 45.5%. For the same compound, the Activity [7] was 65.21 uIU/ml, the IC50 [8] was 3000 nM and the Activity [9] was 86.08 uIU/ml. The Activity (Mus musculus [10]) was “Active”, the bioavailability [11] was 52.7% and the AUC (Rattus norvegicus) was 10000 ng·h/mL. The Activity (Adipocyte [12]) was 6512.65 disintegrations/minute, the clearance [13] was 6 mL/min and the half-life [14] was 1.77 h. For the same compound, the Activity (Adipocyte [15]) was 5996.43 disintegrations/minute, the Activity (Adipocyte [16]) was 8486.79 disintegrations/minute and the “fold change (FC)” value [17] was 3.64. The Tmax [18] was 0.83 h, the Activity (Adipocyte [19]) was 7979.94 disintegrations/minute and the Cmax [20] was 3330 ng/mL. It also gave an Activity (Adipocyte [21]) of 7674.84 disintegrations/minute, a half-life [22] of 1.91 h and an Activity [23] of 40.79 uIU/ml. It also gave an IC50 [24] of 210 nM, an Activity (Mus musculus [25]) of 50% and an Activity (Adipocyte [26]) of 4871.74 disintegrations/minute.
